In ChEMBL document CHEMBL4334438, “Discovery of novel glycogen synthase kinase-3α inhibitors: Structure-based virtual screening, preliminary SAR and biological evaluation for treatment of acute myeloid leukemia” (Eur J Med Chem, 2019) one finds Activity data, which are given here for two compounds.

Assay [1] concerns the target Serine/threonine-protein kinase NIM1 (Homo sapiens) (UniProt Q8IY84). The assay is described as follows: Inhibition of recombinant full length human NIM1 assessed as residual activity at 1 uM using KKKVSRSGLYRSPSMPENLNRPR as substrate measured after 40 mins in presence of [gamma33P]ATP by scintillation counting method relative to control.
Assay [2] deals with STE20-like serine/threonine-protein kinase (Homo sapiens) (UniProt Q9H2G2). The assay is described as follows: Inhibition of human SLK (1 to 373 residues) assessed as residual activity at 1 uM using RLGRDKYKTLRQIRQ as substrate measured after 40 mins in presence of [gamma33P]ATP by scintillation counting method relative to control.
Assay [3] deals with Serine/threonine-protein kinase Sgk1 (Homo sapiens), O00141 [S422D]. The assay is described as follows: Inhibition of recombinant human SGK S422D mutant (60 to end residues) assessed as residual activity at 1 uM using GRPRTSSFAEGKK as substrate measured after 40 mins in presence of [gamma33P]ATP by scintillation counting method relative to control.
Assay [4] addresses Ribosomal protein S6 kinase alpha-2 (Homo sapiens) (UniProt Q15349). The assay is described as follows: Inhibition of recombinant full length human Rsk3 assessed as residual activity at 1 uM using KKKNRTLSVA as substrate measured after 40 mins in presence of [gamma33P]ATP by scintillation counting method relative to control.
The target in assay [5] is Dual specificity mitogen-activated protein kinase kinase 2 (Homo sapiens) (UniProt P36507). The assay is described as follows: Inhibition of recombinant human MEK2 assessed as residual activity at 1 uM using MBP as substrate incubated for 40 mins in presence of [gamma-33ATP by scintillation counting based radiometry assay relative to control.
Assay [6] addresses MAPK/MAK/MRK overlapping kinase (Homo sapiens) (UniProt Q9UQ07). The assay is described as follows: Inhibition of recombinant human MOK (1 to 343 residues) assessed as residual activity at 1 uM using RSRSRSRSRSRSRSR as substrate measured after 40 mins in presence of [gamma33P]ATP by scintillation counting method relative to control.
The subject of assay [7] is Protein kinase C eta type (Homo sapiens), P24723 [UNDEFINED MUTATION]. The assay can be described thus: Inhibition of recombinant human PKCeta V108L/G109R/L392Q mutant (2 to end residues) assessed as residual activity at 1 uM using ERMRPRKRQGSVRRRV as substrate incubated for 40 mins in presence of [gamma33P]ATP by scintillation counting based radiometry assay relative to control.

Assay [8] has as its target Tribbles homolog 2 (Homo sapiens) (UniProt Q92519). The assay can be described thus: Inhibition of recombinant full-length human TRB2 at 1 uM assessed as residual activity at 1 uM using RRRFRPASPLRGPPK as substrate measured after 120 mins in presence of [gamma33P]ATP by scintillation counting method relative to control.
For assay [9], the target named is Platelet-derived growth factor receptor beta (Homo sapiens) (UniProt P09619). The assay can be described thus: Inhibition of human PDGFRbeta (557 to end residues) assessed as residual activity at 1 uM using poly(Glu, Tyr) 4:1 as substrate measured after 40 mins in presence of [gamma33P]ATP by scintillation counting method relative to control.
Assay [10] concerns the target Ephrin type-B receptor 4 (Homo sapiens) (UniProt P54760). The assay is described as follows: Inhibition of recombinant human EphB4 (561 to end residues) assessed as residual activity at 1 uM using poly(Glu, Tyr) 4:1 as substrate at 40 mins in presence of [gamma-33ATP] by scintillation counting based radiometry assay relative to control.
Assay [11] addresses Serine/threonine-protein kinase SIK3 (Homo sapiens) (UniProt Q9Y2K2). The assay is described as follows: Inhibition of recombinant human SIK3 (1 to 307 residues) assessed as residual activity at 1 uM using KKKVSRSGLYRSPSMPENLNRPR as substrate measured after 40 mins in presence of [gamma33P]ATP by scintillation counting method relative to control.
Assay [12] deals with Serine/threonine-protein kinase Sgk3 (Homo sapiens) (UniProt Q96BR1). The assay is described as follows: Inhibition of recombinant human SGK3 (119 to end residues) assessed as residual activity at 1 uM using GRPRTSSFAEGKK as substrate measured after 40 mins in presence of [gamma33P]ATP by scintillation counting method relative to control.
The target in assay [13] is Wee1-like protein kinase 2 (Homo sapiens) (UniProt P0C1S8). The assay is described as follows: Inhibition of recombinant full-length human WEE1b at 1 uM assessed as residual activity at 1 uM using LSNLYHQGKFLQTFCGSPLYRRR as substrate measured after 120 mins in presence of [gamma33P]ATP by scintillation counting method relative to control.
In assay [14] the target is Dual specificity tyrosine-phosphorylation-regulated kinase 1B (Homo sapiens) (UniProt Q9Y463). The assay is described as follows: Inhibition of recombinant human DYRK1B assessed as residual activity at 1 uM using RRRFRPASPLRGPPK as substrate at 40 mins in presence of [gamma-33ATP] by scintillation counting based radiometry assay relative to control.
In assay [15] the target is SRSF protein kinase 1 (Homo sapiens) (UniProt Q96SB4). The assay is described as follows: Inhibition of human SRPK1 (2 to end residues) assessed as residual activity at 1 uM using RSRSRSRSRSRSRSR as substrate measured after 40 mins in presence of [gamma33P]ATP by scintillation counting method relative to control.
In assay [16] the target is Serine/threonine-protein kinase 17B (Homo sapiens) (UniProt O94768). The assay can be described thus: Inhibition of recombinant human DRAK2 assessed as residual activity at 1 uM using KKRPQRRYSNVF as substrate at 120 mins in presence of [gamma-33ATP] by scintillation counting based radiometry assay relative to control.
The target in assay [17] is Tyrosine-protein kinase Lck (Homo sapiens) (UniProt P06239). The assay is described as follows: Inhibition of recombinant full length human LCK activated assessed as residual activity at 1 uM using KVEKIGEGTYGVVYK as substrate after 40 mins in presence of [gamma-33ATP] by scintillation counting based radiometry assay relative to control.
The test system of assay [18] is Epidermal growth factor receptor (Homo sapiens), P00533 [T790M]. The assay is described as follows: Inhibition of recombinant human EGFR T790M mutant (696 to end residues) assessed as residual activity at 1 uM using poly(Glu, Tyr) 4:1 as substrate at 40 mins in presence of [gamma-33ATP] by scintillation counting based radiometry assay relative to control.
For assay [19], the target named is Serine/threonine-protein kinase Nek11 (Homo sapiens) (UniProt Q8NG66). The assay is described as follows: Inhibition of recombinant full length human NEK11 assessed as residual activity at 1 uM myelin basic protein as substrate measured after 40 mins in presence of [gamma33P]ATP by scintillation counting method relative to control.
Assay [20] concerns the target Mitogen-activated protein kinase kinase kinase kinase 1 (Homo sapiens) (UniProt Q92918). The assay can be described thus: Inhibition of human HPK1 (1 to 346 residues) assessed as residual activity at 1 uM using myelin basic protein as substrate after 40 mins by [gamma-33ATP] radiometric assay relative to control.
The target in assay [21] is Serine/threonine-protein kinase PAK 1 (Homo sapiens) (UniProt Q13153). The assay is described as follows: Inhibition of recombinant human PAK1 (150 to end residues) assessed as residual activity at 1 uM using RRRLSFAEPG as substrate measured after 40 mins in presence of [gamma33P]ATP by scintillation counting method relative to control.

Sequence of Serine/threonine-protein kinase 17B (Homo sapiens) (O94768 whole entry): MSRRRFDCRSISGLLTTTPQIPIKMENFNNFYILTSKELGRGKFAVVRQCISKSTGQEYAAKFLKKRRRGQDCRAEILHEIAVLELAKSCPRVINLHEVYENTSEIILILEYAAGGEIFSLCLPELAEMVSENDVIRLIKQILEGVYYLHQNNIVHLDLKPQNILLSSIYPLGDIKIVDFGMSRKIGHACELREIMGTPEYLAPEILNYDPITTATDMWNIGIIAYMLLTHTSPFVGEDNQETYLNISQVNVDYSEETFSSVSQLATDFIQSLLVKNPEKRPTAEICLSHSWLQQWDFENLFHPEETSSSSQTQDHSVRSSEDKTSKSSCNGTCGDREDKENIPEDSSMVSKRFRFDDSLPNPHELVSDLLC
Sequence of Tyrosine-protein kinase Lck (Homo sapiens) (P06239 2-509 limits assumed): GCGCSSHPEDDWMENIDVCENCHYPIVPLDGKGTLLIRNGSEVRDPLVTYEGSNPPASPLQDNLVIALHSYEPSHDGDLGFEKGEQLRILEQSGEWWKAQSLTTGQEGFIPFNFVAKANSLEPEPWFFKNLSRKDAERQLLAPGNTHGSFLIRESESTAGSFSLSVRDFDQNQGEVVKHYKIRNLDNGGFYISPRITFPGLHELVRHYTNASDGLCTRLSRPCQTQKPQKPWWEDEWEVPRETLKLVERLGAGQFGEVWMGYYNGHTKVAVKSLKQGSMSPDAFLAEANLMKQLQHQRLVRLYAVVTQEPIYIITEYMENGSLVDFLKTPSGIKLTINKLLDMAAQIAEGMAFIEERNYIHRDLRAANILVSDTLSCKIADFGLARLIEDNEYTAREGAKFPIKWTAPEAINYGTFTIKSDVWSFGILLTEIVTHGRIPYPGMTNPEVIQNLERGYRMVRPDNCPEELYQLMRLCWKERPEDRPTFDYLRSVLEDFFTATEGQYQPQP
Sequence of Protein kinase C eta type (Homo sapiens), P24723 [UNDEFINED MUTATION] (P24723 whole entry, looked up, stated change not applied): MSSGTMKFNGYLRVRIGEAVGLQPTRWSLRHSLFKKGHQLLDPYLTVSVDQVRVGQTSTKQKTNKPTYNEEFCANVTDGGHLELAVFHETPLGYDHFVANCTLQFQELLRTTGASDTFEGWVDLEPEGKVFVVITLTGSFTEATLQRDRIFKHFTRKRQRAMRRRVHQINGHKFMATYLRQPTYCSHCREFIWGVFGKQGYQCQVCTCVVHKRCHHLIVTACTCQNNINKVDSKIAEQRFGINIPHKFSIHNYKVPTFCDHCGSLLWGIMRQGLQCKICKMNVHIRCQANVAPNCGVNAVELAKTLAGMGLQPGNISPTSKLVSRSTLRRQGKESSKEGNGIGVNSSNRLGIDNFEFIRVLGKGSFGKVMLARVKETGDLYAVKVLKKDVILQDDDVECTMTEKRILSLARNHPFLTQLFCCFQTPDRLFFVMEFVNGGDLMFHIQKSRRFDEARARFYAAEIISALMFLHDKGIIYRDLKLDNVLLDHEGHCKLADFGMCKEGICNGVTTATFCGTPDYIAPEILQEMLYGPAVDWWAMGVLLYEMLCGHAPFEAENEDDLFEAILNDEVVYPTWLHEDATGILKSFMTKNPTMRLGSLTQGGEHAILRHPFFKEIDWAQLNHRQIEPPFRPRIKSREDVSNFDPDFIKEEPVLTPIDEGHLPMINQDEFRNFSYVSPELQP
Sequence of Serine/threonine-protein kinase NIM1 (Homo sapiens) (Q8IY84 whole entry, the tested form may be a part): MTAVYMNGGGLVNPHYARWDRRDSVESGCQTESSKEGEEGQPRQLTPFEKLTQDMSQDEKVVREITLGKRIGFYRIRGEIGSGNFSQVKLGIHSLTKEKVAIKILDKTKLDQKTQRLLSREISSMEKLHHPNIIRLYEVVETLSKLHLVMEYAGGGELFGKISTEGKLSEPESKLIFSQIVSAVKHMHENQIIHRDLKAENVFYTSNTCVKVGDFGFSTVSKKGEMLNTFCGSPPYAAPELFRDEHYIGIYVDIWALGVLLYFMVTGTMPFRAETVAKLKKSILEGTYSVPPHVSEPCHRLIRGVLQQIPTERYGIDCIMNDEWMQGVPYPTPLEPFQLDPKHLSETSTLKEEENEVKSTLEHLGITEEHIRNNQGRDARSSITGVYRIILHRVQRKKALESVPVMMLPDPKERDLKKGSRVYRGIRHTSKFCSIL
Sequence of Serine/threonine-protein kinase Sgk1 (Homo sapiens), O00141 [S422D] (O00141 whole entry S422D): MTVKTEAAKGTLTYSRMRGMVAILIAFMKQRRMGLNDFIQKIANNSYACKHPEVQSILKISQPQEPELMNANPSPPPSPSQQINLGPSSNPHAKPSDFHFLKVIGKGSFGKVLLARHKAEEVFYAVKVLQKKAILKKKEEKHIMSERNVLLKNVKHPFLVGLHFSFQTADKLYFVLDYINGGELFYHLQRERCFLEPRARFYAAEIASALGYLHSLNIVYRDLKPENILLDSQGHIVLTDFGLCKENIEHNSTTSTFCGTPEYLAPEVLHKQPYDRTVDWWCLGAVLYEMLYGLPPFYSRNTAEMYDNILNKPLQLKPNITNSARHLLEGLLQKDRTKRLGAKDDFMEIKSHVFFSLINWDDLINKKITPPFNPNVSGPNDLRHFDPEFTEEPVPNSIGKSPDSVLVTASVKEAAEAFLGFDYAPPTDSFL
Sequence of Tribbles homolog 2 (Homo sapiens) (Q92519 whole entry): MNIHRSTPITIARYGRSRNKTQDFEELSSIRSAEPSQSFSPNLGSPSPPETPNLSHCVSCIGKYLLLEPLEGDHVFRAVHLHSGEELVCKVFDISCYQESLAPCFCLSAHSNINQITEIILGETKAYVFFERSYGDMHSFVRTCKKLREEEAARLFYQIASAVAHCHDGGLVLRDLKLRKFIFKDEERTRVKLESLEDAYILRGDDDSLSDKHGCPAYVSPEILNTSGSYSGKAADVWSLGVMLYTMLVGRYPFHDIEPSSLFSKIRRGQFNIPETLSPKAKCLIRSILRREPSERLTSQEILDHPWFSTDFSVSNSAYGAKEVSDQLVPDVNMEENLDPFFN
Sequence of Serine/threonine-protein kinase Sgk3 (Homo sapiens) (Q96BR1 whole entry): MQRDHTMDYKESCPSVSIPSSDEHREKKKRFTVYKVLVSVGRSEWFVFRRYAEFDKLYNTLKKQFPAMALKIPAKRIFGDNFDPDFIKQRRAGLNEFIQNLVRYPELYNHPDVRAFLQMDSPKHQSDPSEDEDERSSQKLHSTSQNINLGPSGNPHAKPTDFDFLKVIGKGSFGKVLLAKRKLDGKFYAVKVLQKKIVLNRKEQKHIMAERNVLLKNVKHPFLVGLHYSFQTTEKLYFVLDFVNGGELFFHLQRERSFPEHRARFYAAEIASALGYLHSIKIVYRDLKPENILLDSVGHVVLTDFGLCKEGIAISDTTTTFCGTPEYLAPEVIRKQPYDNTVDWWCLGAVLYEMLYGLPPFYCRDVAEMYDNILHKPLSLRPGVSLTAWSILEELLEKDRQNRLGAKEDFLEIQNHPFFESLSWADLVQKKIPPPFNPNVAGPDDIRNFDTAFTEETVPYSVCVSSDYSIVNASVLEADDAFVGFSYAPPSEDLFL
Sequence of SRSF protein kinase 1 (Homo sapiens) (Q96SB4 whole entry): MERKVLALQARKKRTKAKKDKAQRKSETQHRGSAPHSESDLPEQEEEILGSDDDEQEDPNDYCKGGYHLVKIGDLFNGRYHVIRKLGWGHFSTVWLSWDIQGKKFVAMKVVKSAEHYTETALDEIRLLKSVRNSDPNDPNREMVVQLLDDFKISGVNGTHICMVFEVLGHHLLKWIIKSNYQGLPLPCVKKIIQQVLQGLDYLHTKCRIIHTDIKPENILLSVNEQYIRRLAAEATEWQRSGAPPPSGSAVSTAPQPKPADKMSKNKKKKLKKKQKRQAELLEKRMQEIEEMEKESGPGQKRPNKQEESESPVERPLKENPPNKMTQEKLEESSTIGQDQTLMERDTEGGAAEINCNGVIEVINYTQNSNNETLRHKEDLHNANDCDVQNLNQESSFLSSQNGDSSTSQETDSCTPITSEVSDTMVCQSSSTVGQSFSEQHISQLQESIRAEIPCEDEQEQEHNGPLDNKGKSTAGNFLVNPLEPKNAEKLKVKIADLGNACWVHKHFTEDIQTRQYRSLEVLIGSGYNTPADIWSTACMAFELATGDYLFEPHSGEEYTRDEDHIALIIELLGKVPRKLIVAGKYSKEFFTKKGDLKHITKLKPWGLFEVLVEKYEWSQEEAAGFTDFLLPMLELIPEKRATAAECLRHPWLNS
Sequence of Wee1-like protein kinase 2 (Homo sapiens) (P0C1S8 whole entry, looked up): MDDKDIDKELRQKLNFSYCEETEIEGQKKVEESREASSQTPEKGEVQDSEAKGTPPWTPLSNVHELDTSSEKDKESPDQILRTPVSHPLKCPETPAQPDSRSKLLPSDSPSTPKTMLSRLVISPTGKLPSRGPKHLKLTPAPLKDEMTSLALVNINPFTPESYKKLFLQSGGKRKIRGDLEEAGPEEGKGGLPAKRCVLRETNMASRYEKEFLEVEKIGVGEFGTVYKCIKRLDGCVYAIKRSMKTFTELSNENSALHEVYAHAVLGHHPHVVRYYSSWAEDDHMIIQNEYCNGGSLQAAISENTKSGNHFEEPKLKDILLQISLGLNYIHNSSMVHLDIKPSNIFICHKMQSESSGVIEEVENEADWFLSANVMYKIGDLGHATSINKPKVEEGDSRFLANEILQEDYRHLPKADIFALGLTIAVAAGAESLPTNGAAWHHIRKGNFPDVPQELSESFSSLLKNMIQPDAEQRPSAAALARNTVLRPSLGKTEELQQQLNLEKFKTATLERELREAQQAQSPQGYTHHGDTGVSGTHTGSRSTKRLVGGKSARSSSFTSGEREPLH
Sequence of MAPK/MAK/MRK overlapping kinase (Homo sapiens) (Q9UQ07 whole entry, the tested form may be a part): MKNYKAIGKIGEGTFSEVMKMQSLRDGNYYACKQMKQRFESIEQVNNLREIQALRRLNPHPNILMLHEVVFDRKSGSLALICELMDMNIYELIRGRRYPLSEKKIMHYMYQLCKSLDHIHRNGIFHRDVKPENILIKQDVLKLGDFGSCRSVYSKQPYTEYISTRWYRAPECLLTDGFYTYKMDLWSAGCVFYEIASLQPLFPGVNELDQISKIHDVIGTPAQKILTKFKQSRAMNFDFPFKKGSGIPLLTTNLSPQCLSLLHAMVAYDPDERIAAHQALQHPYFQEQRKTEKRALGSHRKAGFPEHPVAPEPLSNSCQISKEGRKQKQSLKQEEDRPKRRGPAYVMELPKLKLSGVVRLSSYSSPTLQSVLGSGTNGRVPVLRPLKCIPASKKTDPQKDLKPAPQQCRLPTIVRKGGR

`N=C1NC(=O)/C(=C\c2ccc(-c3cccc([N+](=O)[O-])c3)o2)S1`: the Activity in [1] stood at 101%; in assay [2], 95%; in assay [3] it was 98%; in assay [4], 96%; in assay [5], 100%; in [6] it was 101%. Moreover, the Activity in assay [7] was determined as 101%; in assay [8], 40%; in [9], 103%; in assay [10] it was 93%; in [11], 101%; in assay [12] it was 109%. The Activity is 106% in assay [13]; 80% in assay [14]; 94% in [15]; 59% in assay [16]; 93% in [17]; 101% in assay [18]. The values for the Activity in assay [19], in assay [20] and in [21] were 55%, 97% and 104%, respectively.
As for `C=CCOC(=O)c1cc(-c2ccc(/C=C3/NC(=S)NC3=O)o2)ccc1Cl`, the Activity in [1] was 95%; in assay [2], 87%; in assay [3], 91%; in [4], 112%; in assay [5], 104%; in assay [6] it was 118%. In addition, the Activity is 99% in [7]; 49% in assay [8]; 108% in [9]; 94% in [10]; 96% in [11]; 96% in [12]. Also, the Activity in assay [13] was 93%; in assay [14] it was 88%; in [15], 104%; in assay [16], 80%; in assay [17], 76%; in assay [18], 90%. Also, the results for the Activity in assay [19], in [20] and in assay [21] were 62%, 98% and 100%, respectively.
